Measurements reported in patent publication US10414754B2, “Indolizine compounds, a process for their preparation and pharmaceutical compositions containing them” (LES LABORATOIRES SERVIER, priority 2013, dated 2019).
Counter-ions that a name gives are not always drawn.

Tests used:
[1] = test system: RS4;11 leukaemia tumour line; experiment: In vitro cytotoxicity (MTT) on RS4;11; type: cell-based; details: Homo sapiens; RS4;11 cells, 48 hours exposure
Method: The cytotoxicity studies were carried out on the RS4;11 leukaemia tumour line.
The cells are distributed onto microplates and exposed to the test compounds for 48 hours.
The cell viability is then quantified by a colorimetric assay, the Microculture Tetrazolium Assay (Cancer Res., 1987, 47, 939-942).

[2] = molecular target: T1, Bcl-2 protein (histag-Bcl-2, UniProtKB P10415) (Homo sapiens, UniProt P10415); experiment: Inhibition of Bcl-2 by the fluorescence polarisation technique; type: binding; details: fluorescence polarisation, 2 hours incubation; read-out: IC50 (nM) Bcl-2 FP
T1 construct: His tag
Method: The fluorescence polarisation tests were carried out on microplates (384 wells). The Bcl-2 protein, labelled (histag-Bcl-2 such that Bcl-2 corresponds to the UniProtKB® primary accession number: P10415), at a final concentration of 2.50×10^−8 M, is mixed with a fluorescent peptide (Fluorescein-[…]), at a final concentration of 1.00×10^−8M in a buffer solution (Hepes 10 mM, NaCl 150 mM, Tween20 0.05%, pH 7.4), in the presence or absence of increasing concentrations of test compounds. After incubation for 2 hours, the fluorescence polarisation is measured.

T1 sequence (P10415 whole entry): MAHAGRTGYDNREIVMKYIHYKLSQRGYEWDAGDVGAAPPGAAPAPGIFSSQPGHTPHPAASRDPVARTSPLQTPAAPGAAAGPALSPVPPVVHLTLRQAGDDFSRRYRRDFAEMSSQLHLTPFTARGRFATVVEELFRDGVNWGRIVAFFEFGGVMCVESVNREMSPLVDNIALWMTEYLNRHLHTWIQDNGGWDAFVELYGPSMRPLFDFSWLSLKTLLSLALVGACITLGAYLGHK

Structure (SMILES)	IC50 [2] [nM]	IC50 [1] [nM]
C[C@@H]1Cc2ccccc2CN1C(=O)c1cc2c(cc1-c1cc(C(=O)N(c3ccc(O)cc3)c3ccc4c(ccn4CCN4CCOCC4)c3)c3n1CCCC3)OCO2 [Example 2, N-(4-Hydroxyphenyl)-3-(6-{[(3R)-3-methyl-3,4-dihydroisoquinolin-2(1H)-yl]carbonyl}-1,3-benzodioxol-5-yl)-N-{1-[2-(morpholin-4-yl)ethyl]-1H-indol-5-yl}-5,6,7,8-tetrahydroindolizine-1-carboxamide hydrochloride]	17	36
O=C(c1ccc(Cl)cc1-c1cc(C(=O)N(c2ccc(O)cc2)c2ccc3c(ccn3CCN3CCOCC3)c2)c2n1CCCC2)N1CCc2ccccc2C1 [Example 4, 3-[5-Chloro-2-(3,4-dihydroisoquinolin-2(1H)-ylcarbonyl)phenyl]-N-(4-hydroxyphenyl)-N-{1-[2-(morpholin-4-yl)ethyl]-1H-indol-5-yl}-5,6,7,8-tetrahydro-indolizine-1-carboxamide]	56.4	251
O=C(c1ccc(Cl)cc1-c1cc(C(=O)N(c2ccc(O)cc2)c2ccc3c(c2)CCN3CCN2CCOCC2)c2n1CCCC2)N1CCc2ccccc2C1 [Example 5, 3-[5-Chloro-2-(3,4-dihydroisoquinolin-2(1H)-ylcarbonyl)phenyl]-N-(4-hydroxyphenyl)-N-{1-[2-(morpholin-4-yl)ethyl]-2,3-dihydro-1H-indol-5-yl}-5,6,7,8-tetrahydroindolizine-1-carboxamide]	55.9	416
C[C@@H]1Cc2ccccc2CN1C(=O)c1ccc(Cl)cc1-c1cc(C(=O)N(c2ccc(O)cc2)c2ccc3c(ccn3CCN3CCOCC3)c2)c2ccccn12 [Example 8, 3-(5-Chloro-2-{[(3R)-3-methyl-3,4-dihydroisoquinolin-2(1H)-yl]-carbonyl}phenyl)-N-(4-hydroxyphenyl)-N-{1-[2-(morpholin-4-yl)ethyl]-1H-indol-5-yl}indolizine-1-carboxamide hydrochloride]	24.5	20.5
O=C(c1cc(-c2cc3c(cc2C(=O)N2Cc4ccccc4C[C@H]2CCN2CCOCC2)OCO3)n2c1CCCC2)N(c1ccccc1)c1ccc(O)cc1 [Example 13, N-(4-Hydroxyphenyl)-3-(6-{[(3S)-3-[2-(morpholin-4-yl)ethyl]-3,4-dihydroisoquinolin-2(1H)-yl]carbonyl}-1,3-benzodioxol-5-yl)-N-phenyl-5,6,7,8-tetrahydroindolizine-1-carboxamide hydrochloride]	5.8	33.6
Cn1ncc2cc(N(C(=O)c3cc(-c4cc5c(cc4C(=O)N4Cc6ccccc6C[C@H]4CCN4CCOCC4)OCO5)n4c3CCCC4)c3ccc(O)cc3)ccc21 [Example 14, N-(4-Hydroxyphenyl)-N-(1-methyl-1H-indazol-5-yl)-3-(6-{[(3S)-3-[2-(morpholin-4-yl)ethyl]-3,4-dihydroisoquinolin-2(1H)-yl]carbonyl}-1,3-benzodioxol-5-yl)-5,6,7,8-tetrahydroindolizine-1-carboxamide hydrochloride]	3.7	7.6
O=C(c1cc(-c2cc3c(cc2C(=O)N2Cc4ccccc4C[C@H]2CO)OCO3)n2c1CCCC2)N(c1ccccc1)c1ccc(O)cc1 [Example 16, 3-(6-{[(3S)-3-(Hydroxymethyl)-3,4-dihydroisoquinolin-2(1H)-yl]-carbonyl}-1,3-benzodioxol-5-yl)-N-(4-hydroxyphenyl)-N-phenyl-5,6,7,8-tetrahydro-indolizine-1-carboxamide]	7.5	252
CCN(C(=O)c1cc(-c2cc3c(cc2C(=O)N2CCc4ccccc4C2)OCO3)n2c1CNCC2)c1ccc(O)cc1 [Example 85, 6-[6-(3,4-Dihydroisoquinolin-2(1H)-ylcarbonyl)-1,3-benzodioxol-5-yl]-N-ethyl-N-(4-hydroxyphenyl)-1,2,3,4-tetrahydropyrrolo[1,2-a]pyrazine-8-carboxamide]	243	

The next lines start with results.

IC50 [2] [nM]	Structure (SMILES)	IC50 [1] [nM]
17.9	C[C@@H]1Cc2ccccc2CN1C(=O)c1cc2c(cc1-c1cc(C(=O)N(c3ccc(O)cc3)c3ccc4c(ccn4C)c3)c3n1CCCC3)OCO2 [Example 1, N-(4-Hydroxyphenyl)-3-(6-{[(3R)-3-methyl-3,4-dihydroisoquinolin-2(1H)-yl]carbonyl}-1,3-benzodioxol-5-yl)-N-(1-methyl-1H-indol-5-yl)-5,6,7,8-tetrahydro-indolizine-1-carboxamide]	11.3
33.6	C[C@@H]1Cc2ccccc2CN1C(=O)c1ccc(Cl)cc1-c1cc(C(=O)N(c2ccc(O)cc2)c2ccc3c(ccn3C)c2)c2n1CCNC2 [Example 3, 6-(5-Chloro-2-{[(3R)-3-methyl-3,4-dihydroisoquinolin-2(1H)-yl]-carbonyl}phenyl)-N-(4-hydroxyphenyl)-N-(1-methyl-1H-indol-5-yl)-1,2,34-tetrahydropyrrolo[1,2-a]pyrazine-8-carboxamide hydrochloride]	66.5
60.3	C[C@@H]1Cc2ccccc2CN1C(=O)c1cc2c(cc1-c1cc(C(=O)N(c3ccc(O)cc3)c3ccc4c(ccn4C)c3)c3n1CCN(C)C3)OCCO2 [Example 6, N-(4-Hydroxyphenyl)-2-methyl-6-(7-{[(3R)-3-methyl-3,4-dihydroiso-quinolin-2(1H)-yl]carbonyl}-2,3-dihydro-1,4-benzodioxin-6-yl)-N-(1-methyl-1H-indol-5-yl)-1,2,3,4-tetrahydropyrrolo[1,2-a]pyrazine-8-carboxamide hydrochloride]	161
46.4	C[C@@H]1Cc2ccccc2CN1C(=O)c1ccc(Cl)cc1-c1cc(C(=O)N(c2ccc(O)cc2)c2ccc3c(ccn3C)c2)c2n1CCN(C)C2 [Example 7, 6-(5-Chloro-2-{[(3R)-3-methyl-3,4-dihydroisoquinolin-2(1H)-yl]-carbonyl}phenyl]-N-(4-hydroxyphenyl)-2-methyl-N-(1-methyl-1H-indol-5-yl)-1,2,3,4-tetrahydropyrrolo[1,2-a]pyrazine-8-carboxamide]	108
40.6	C[C@@H]1Cc2ccccc2CN1C(=O)c1ccc(F)cc1-c1cc(C(=O)N(c2ccc(O)cc2)c2ccc(F)cc2)c2n1CCNC2 [Example 9, 6-(5-Fluoro-2-{[(3R)-3-methyl-3,4-dihydroisoquinolin-2(1H)-yl]carbonyl}-phenyl)-N-(4-fluorophenyl)-N-(4-hydroxyphenyl)-1,2,3,4-tetrahydropyrrolo[1,2-a]-pyrazine-8-carboxamide hydrochloride]	780
24.7	Cc1ccc(N(C(=O)c2cc(-c3cc(F)ccc3C(=O)N3Cc4ccccc4C[C@H]3C)n3c2CNCC3)c2ccc(O)cc2)cc1F [Example 10, 6-(5-Fluoro-2-{[(3R)-3-methyl-3,4-dihydroisoquinolin-2(1H)-yl]-carbonyl}phenyl)-N-(3-fluoro-4-methylphenyl)-N-(4-hydroxyphenyl)-1,2,3,4-tetrahydropyrrolo[1,2-a]pyrazine-8-carboxamide hydrochloride]	439
10.9	C[C@@H]1Cc2ccccc2CN1C(=O)c1cc2c(cc1-c1cc(C(=O)N(c3ccc(O)cc3)c3ccc4c(cnn4C)c3)c3n1CCNC3)OCO2 [Example 11, N-(4-Hydroxyphenyl)-6-(6-{[(3R)-3-methyl-3,4-dihydroisoquinolin-2(1,H)-yl]carbonyl}-1,3-benzodioxol-5-yl)-N-(1-methyl-1H-indazol-5-yl)-1,2,3,4-tetrahydropyrrolo[1,2-a]pyrazine-8-carboxamide hydrochloride]	83.7
10.4	C[C@@H]1Cc2ccccc2CN1C(=O)c1ccc(Cl)cc1-c1cc(C(=O)N(c2ccc(O)cc2)c2ccc3c(cnn3C)c2)c2n1CCNC2 [Example 12, 6-(5-Chloro-2-{[(3R)-3-methyl-3,4-dihydroisoquinolin-2(1H)-yl]-carbonyl}phenyl)-N-(4-hydroxyphenyl)-N-(1-methyl-1H-indazol-5-yl)-1,2,3,4-tetrahydropyrrolo[1,2-a]pyrazine-8-carboxamide hydrochloride]	116
5.7	C[C@@H]1Cc2ccccc2CN1C(=O)c1cc2c(cc1-c1cc(C(=O)N(c3ccccc3)c3ccc(O)cc3)c3n1CCC(N)C3)OCO2 (stereo partly drawn) [Example 15, 7-Amino-N-(4-hydroxyphenyl)-3-(6-{[(3R)-3-methyl-3,4-dihydroiso-quinolin-2(1H)-yl]carbonyl}-1,3-benzodioxol-5-yl)-N-phenyl-5,6,7,8-tetrahydro-indolizine-1-carboxamide hydrochloride]	166
49	C[C@@H]1Cc2ccccc2CN1C(=O)c1cc2c(cc1-c1cc(C(=O)N(c3ccc(O)cc3)c3cc[n+](C)cc3)c3ccccn13)OCO2 [Example 71, 4-[(4-Hydroxyphenyl){[3-(6-{[(3R)-3-methyl-3,4-dihydroisoquinolin-2(1H)-yl]carbonyl}-1,3-benzodioxol-5-yl)indolizin-1-yl]carbonyl}amino]-1-methyl-pyridinium chloride]	
525	CN(C(=O)c1cc(-c2cc3c(cc2C(=O)N2CCc4ccccc4C2)OCO3)n2c1CNCC2)c1ccc(O)cc1 [Example 84, 6-[6-(3,4-Dihydroisoquinolin-2(1H)-ylcarbonyl)-1,3-benzodioxol-5-yl]-N-(4-hydroxyphenyl)-N-methyl-1,2,3,4-tetrahydropyrrolo[1,2-a]pyrazine-8-carboxamide]	
